From US11932658B2 (BRISTOL-MYERS SQUIBB COMPANY, priority 2016, dated 2024)

Biological target: T1, PAR4 (Homo sapiens, UniProt Q96RI0)
T1 construct: expressed in transfected cells; host or cells: HEK293 PAR4 Clone 1.2A (BMS Arctic ID 383940)
T1 sequence (Q96RI0 18-385): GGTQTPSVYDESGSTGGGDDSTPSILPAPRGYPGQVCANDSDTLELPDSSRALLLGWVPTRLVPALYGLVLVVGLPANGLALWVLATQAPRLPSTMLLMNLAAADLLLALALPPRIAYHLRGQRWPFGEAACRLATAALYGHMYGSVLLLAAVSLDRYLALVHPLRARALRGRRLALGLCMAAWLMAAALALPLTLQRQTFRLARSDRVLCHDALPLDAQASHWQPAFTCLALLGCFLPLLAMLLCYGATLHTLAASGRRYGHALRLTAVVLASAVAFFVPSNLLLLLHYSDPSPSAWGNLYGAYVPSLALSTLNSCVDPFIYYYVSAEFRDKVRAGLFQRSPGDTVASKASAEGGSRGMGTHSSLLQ
Experiment: PAR4 FLIPR assay (antagonism of agonist peptide-induced calcium mobilization)
Type: cell-based
Excerpt: The FLIPR assay is an exemplary in vitro assay for measuring the activity of the PAR4 antagonists of the present invention. In this assay, intracellular calcium mobilization is induced in PAR4 expressing cells by a PAR4 agonist and calcium mobilization is monitored.
HEK293 cells stably expressing PAR4 were generated by a standard method of transfection of human PAR4 (F2R23) cDNA expression vector and selected based on PAR4 protein expression or mRNA expression. […] These cells also express endogenous PAR1 and can elicit calcium signal upon stimulation with PAR1 agonist peptide. Therefore, the same cells were also used to determine selectivity against PAR1 and agonist activity for both receptors. Cells from HEK293 PAR4 Clone 1.2A (BMS Arctic ID 383940) were propagated and used for calcium mobilization studies.
FLIPR-based calcium mobilization assay in HEK293 cells was used to measure PAR4 antagonism, agonism, and selectivity against PAR1. The activity of the PAR4 antagonists of the present invention were tested in PAR4 expressing cells by monitoring H-Ala-Phe(4-F)-Pro-Gly-Trp-Leu-Val-Lys-Asn-Gy-NH2-induced intracellular calcium mobilization. Counter screens for agonist activity and PAR1 antagonist activity were also performed. Briefly, PAR1/PAR4-expressing HEK293 cells were grown in DMEM (Life Technology, Grand Island, NY) containing 10% heat-inactivated FBS, 1% Penicillin-Streptomycin, 10 μg/mL blasticidin, and 100 μg/mL Zeocin at 37° C. with 5% CO2. Cells were plated overnight prior to the experiment in a black 384-well Purecoat Amine clear bottom plate (Becton Dickinson Biosciences, San Jose, CA) at 10,000 cells/well in 30 μL growth medium and incubated in a humidified chamber at 37° C. with 5% CO2 overnight. Prior to compound addition, the cell medium was replaced with 40 μL of 1× calcium and magnesium-containing Hank's Balanced Saline Solution (HBSS) (with 20 mM HEPES) and 1:1000 diluted fluorescent calcium indicator (Codex Biosolutions, Gaithersburg, MD). After a 30 minute incubation period at 37° C. and a further 30 minute incubation and equilibration period at room temperature, 20 μL test compound (diluted in 1×HBSS buffer) was added at various concentrations at 0.17% dimethyl sulfoxide (DMSO) final concentration. Changes in fluorescence intensity were measured using a Functional Drug Screening System (FDSS, Hamamatsu, Japan) to determine agonist activities. The cells were then incubated for 30 minutes at room temperature followed by addition of 20 μL of agonist peptide for antagonist activity measurement. […] Compound potency was derived from 11-point concentration-response curves.

Row | SMILES | IC50
1 | COc1cnc2c(-c3nc4ccc5c(c4s3)C[C@@H](C(C)O)O5)cc(C)cc2n1 (mixture of isomers) [Example 190] | 24 nM
2 | COc1cnc2c(-c3nc4cc(F)c5c(c4s3)[C@H](C)[C@H](CO)O5)cc(C)cc2n1 (relative stereo) [Example 199] | 71 nM
3 | COc1ccc(NC(=O)OC[C@@H]2COc3c(cc(Cl)c4nc(-c5cc(C)cc6nc(OC)cnc56)sc34)O2)cn1 (single isomer, unassigned) [Example 2] | 130 nM
4 | COc1cnc2c(-c3nc4c(Cl)cc5c(c4s3)C[C@H](COC(=O)Nc3ccc(C)nc3)O5)cc(C)cc2n1 (single isomer, unassigned) [Example 20] | 3.2 nM
5 | COc1cnc2c(-c3nc4c(Cl)cc5c(c4s3)C[C@@H](COC(=O)Nc3ccc(C)nc3)O5)cc(C)cc2n1 (single isomer, unassigned) [Example 147] | 14 nM
6 | COc1cnc2c(-c3nc4ccc5c(c4s3)C[C@](C)(CO)O5)cc(C)cc2n1 (single isomer, unassigned) [Example 188] | 130 nM
7 | COc1cnc2c(-c3nc4cc(F)c5c(c4s3)[C@@H](C)[C@H](CO)O5)cc(C)cc2n1 (single isomer, unassigned) [Example 201] | 7.8 nM
8 | COc1cnc2c(-c3nc4cc(F)c5c(c4s3)C(C)(C)[C@H](CO)O5)cc(C)cc2n1 (single isomer, unassigned) [Example 206] | 370 nM
9 | COc1cnc2c(-c3nc4ccc5c(c4s3)C[C@@H]([C@@H](C)O)O5)cc(C)cc2n1 (single isomer, unassigned) [Example 243] | 9.7 nM
10 | COc1cnc2c(-c3nc4c(C(O)C5(C(F)(F)F)CCC5)cc5c(c4s3)OCCO5)cc(C)cc2n1 (single isomer, unassigned) [Example 265, (2-(2-methoxy-7-methylquinoxalin-5-yl)-7,8-dihydro-[1,4]dioxino[2′,3′:3,4]benzo[1,2-d]thiazol-4-yl)(1-(trifluoromethyl)cyclobutyl)methanol] | 1.9 nM
11 | COc1cnc2c(-c3nc4c(C(O)C(C)(C)C)cc5c(c4s3)OCCO5)cc(Cl)cc2c1 (single isomer, unassigned) [Example 274, 1-(2-(6-chloro-3-methoxyquinolin-8-yl)-7,8-dihydro-[1,4]dioxino[2′,3′:3,4]benzo[1,2-d]thiazol-4-yl)-2,2-dimethylpropan-1-ol] | 5 nM
12 | COc1cnc2c(-c3nc4c(C(O)C(C)(C)C)cc5c(c4s3)OCCO5)cc(C)cc2n1 (single isomer, unassigned) [Example 277, 1-(2-(2-methoxy-7-methylquinoxalin-5-yl)-7,8-dihydro-[1,4]dioxino[2′,3′:3,4]benzo[1,2-d]thiazol-4-yl)-2,2-dimethylpropan-1-ol] | 2.3 nM
13 | COc1cnc2c(-c3nc4c(C)cc5c(c4s3)OCC(COC(=O)Nc3ccnc(O)c3)O5)cc(C)cc2n1 (centres unmarked) [Example 3, (2-(2-methoxy-7-methylquinoxalin-5-yl)-4-methyl-7,8-dihydro-[1,4]dioxino[2′,3′:3,4]benzo[1,2-d]thiazol-7-yl)methyl (2-hydroxypyridin-4-yl)carbamate] | 12 nM
14 | COc1cnc2c(-c3nc4c(C)cc5c(c4s3)OCC(COC(=O)Oc3cccnc3)O5)cc(C)cc2n1 (centres unmarked) [Example 6, (2-(2-methoxy-7-methylquinoxalin-5-yl)-4-methyl-7,8-dihydro-[1,4]dioxino[2′,3′:3,4]benzo[1,2-d]thiazol-7-yl)methyl pyridin-3-yl carbonate] | 10 nM
15 | COc1ccc(NC(=O)OC[C@H]2COc3c(cc(Cl)c4oc(-c5cc(C)cc6nc(OC)cnc56)cc34)O2)cn1 [Example 9, (R)-(6-chloro-8-(2-methoxy-7-methylquinoxalin-5-yl)-2,3-dihydro-[1,4]dioxino[2,3-e]benzofuran-3-yl)methyl (6-methoxypyridin-3-yl)carbamate] | 1.8 nM
16 | COc1cnc2c(-c3cc4c5c(cc(Cl)c4o3)O[C@@H](COC(=O)Nc3cccnc3)CO5)cc(C)cc2n1 [Example 10, (R)-(6-chloro-8-(2-methoxy-7-methylquinoxalin-5-yl)-2,3-dihydro-[1,4]dioxino[2,3-e]benzofuran-3-yl)methyl pyridin-3-ylcarbamate] | 8.5 nM
17 | COc1cnc2c(-c3cc4c5c(ccc4o3)O[C@@H](COC(=O)Nc3ccnc(C)c3)CO5)cc(C)cc2n1 [Example 12, (R)-(8-(2-methoxy-7-methylquinoxalin-5-yl)-2,3-dihydro-[1,4]dioxino[2,3-e]benzofuran-3-yl)methyl (2-methylpyridin-4-yl)carbamate] | 3.8 nM
18 | COc1cnc2c(-c3cc4c5c(cc(C)c4o3)O[C@@H](COC(=O)Nc3ccc(C)nc3)CO5)cc(C)cc2n1 [Example 14, (R)-(8-(2-methoxy-7-methylquinoxalin-5-yl)-6-methyl-2,3-dihydro-[1,4]dioxino[2,3-e]benzofuran-3-yl)methyl (6-methylpyridin-3-yl)carbamate] | 2.9 nM

Continued by falling IC50, values first:

Row | IC50 | SMILES
19 | 1.8 nM | COc1cnc2c(-c3nc4c(C)cc5c(c4s3)OC[C@H](COC(=O)Nc3cccnc3)O5)cc(C)cc2n1 (single isomer, unassigned) [Example 5]
20 | 1.7 nM | COc1cnc2c(-c3nc4ccc5c(c4s3)C[C@@](C)(CO)O5)cc(C)cc2n1 (single isomer, unassigned) [Example 187]
21 | 1.6 nM | COc1ccc(NC(=O)OC[C@H]2COc3c(cc(Cl)c4nc(-c5cc(C)cc6nc(OC)cnc56)sc34)O2)cn1 [Example 1, (R)-(4-chloro-2-(2-methoxy-7-methylquinoxalin-5-yl)-7,8-dihydro-[1,4]dioxino[2′,3′:3,4]benzo[1,2-d]thiazol-7-yl)methyl (6-methoxypyridin-3-yl)carbamate]
22 | 1.4 nM | COc1cnc2c(-c3cc4c5c(cc(Cl)c4o3)O[C@@H](COC(=O)Nc3ccnc(C)c3)CO5)cc(C)cc2n1 [Example 8, (R)-(6-chloro-8-(2-methoxy-7-methylquinoxalin-5-yl)-2,3-dihydro-[1,4]dioxino[2,3-e]benzofuran-3-yl)methyl (2-methylpyridin-4-yl)carbamate]
23 | 1.3 nM | COc1cnc2c(-c3cc4c5c(ccc4o3)O[C@@H](COC(=O)Nc3ccc(C)nc3)CO5)cc(C)cc2n1 [Example 11, (R)-(8-(2-methoxy-7-methylquinoxalin-5-yl)-2,3-dihydro-[1,4]dioxino[2,3-e]benzofuran-3-yl)methyl (6-methylpyridin-3-yl)carbamate]
24 | 1.2 nM | COc1ccc(NC(=O)OC[C@H]2COc3c(ccc4oc(-c5cc(C)cc6nc(OC)cnc56)cc34)O2)cn1 [Example 13, (R)-(8-(2-methoxy-7-methylquinoxalin-5-yl)-2,3-dihydro-[1,4]dioxino[2,3-e]benzofuran-3-yl)methyl (6-methoxypyridin-3-yl)carbamate]
25 | 1 nM | COc1cnc2c(-c3cc4c5c(cc(Cl)c4o3)O[C@@H](COC(=O)Nc3ccc(C)nc3)CO5)cc(C)cc2n1 [Example 7, (R)-(6-chloro-8-(2-methoxy-7-methylquinoxalin-5-yl)-2,3-dihydro-[1,4]dioxino[2,3-e]benzofuran-3-yl)methyl (6-methylpyridin-3-yl)carbamate]
26 | 0.8 nM | COc1ccc(NC(=O)OC[C@H]2COc3c(cc(C)c4nc(-c5cc(C)cc6nc(OC)cnc56)sc34)O2)cn1 (single isomer, unassigned) [Example 4]
